From ChEMBL document CHEMBL3779770, “Synthesis, biological evaluation and molecular docking study of some novel indole and pyridine based 1,3,4-oxadiazole derivatives as potential antitubercular agents” (Bioorg Med Chem Lett, 2016)
In brackets after ≈: the same amount, converted by molar mass.

Key:
[1] = Selectivity index, ratio of GI50 for human A549 cells to MIC for dormant state Mycobacterium bovis BCG ATCC 35734; type: toxicity, cell-based; conditions: read-out: Selectivity Index
[2] = Selectivity index, ratio of GI50 for human PANC1 cells to MIC for active state Mycobacterium bovis BCG ATCC 35734; type: toxicity, cell-based, PANC-1; conditions: read-out: Selectivity Index
[3] = Selectivity index, ratio of GI50 for human PANC1 cells to MIC for dormant state Mycobacterium bovis BCG ATCC 35734; type: toxicity, cell-based, PANC-1; conditions: read-out: Selectivity Index
[4] = system: Escherichia coli; assay: Antibacterial activity against Escherichia coli NCIM 2688 after 8 hrs; type: functional, organism-based; conditions: NCIM 2688, 8 h
[5] = system: Pseudomonas fluorescens; assay: Antibacterial activity against Pseudomonas fluorescens NCIM 2036 after 8 hrs; type: functional, organism-based; conditions: NCIM 2036, 8 h
[6] = system: Staphylococcus aureus; assay: Antibacterial activity against Staphylococcus aureus NCIM 2010 after 12 hrs; type: functional, organism-based; conditions: NCIM 2010, 12 h
[7] = system: Bacillus subtilis; assay: Antibacterial activity against Bacillus subtilis NCIM 2079 after 12 hrs; type: functional, organism-based; conditions: NCIM 2079, 12 h
[8] = system: Mycobacterium tuberculosis; assay: Antitubercular activity against active state Mycobacterium tuberculosis H37Ra assessed as viable cells after 8 days by XTT reduction menadione assay; type: functional, organism-based; conditions: 192 h
[9] = system: Mycobacterium tuberculosis; assay: Antitubercular activity against dormant state Mycobacterium tuberculosis H37Ra assessed as viable cells after 12 days by XTT reduction menadione assay; type: functional, organism-based; conditions: 288 h
[10] = (§1) Cytotoxicity against human HeLa cells after 72 hrs by MTT assay; type: cell-based; conditions: HeLa cells
[11] = system: HeLa; assay: as §1; type: cell-based; conditions: hela, 72 h
[12] = (§2) Cytotoxicity against human A549 cells after 48 hrs by MTT assay; type: cell-based; conditions: A549 cells
[13] = system: A549; assay: as §2; type: cell-based; conditions: a549, 48 h
[14] = Cytotoxicity against human PANC1 cells after 48 hrs by MTT assay; type: cell-based, PANC-1; conditions: for GI50 at 48 h: PANC1 cells; for GI90: panc-1, 48 h
[15] = Selectivity index, ratio of GI50 for human HeLa cells to MIC for active state Mycobacterium bovis BCG ATCC 35734; type: toxicity, cell-based; conditions: read-out: Selectivity Index
[16] = Selectivity index, ratio of GI50 for human HeLa cells to MIC for dormant state Mycobacterium bovis BCG ATCC 35734; type: toxicity, cell-based; conditions: read-out: Selectivity Index
[17] = Selectivity index, ratio of GI50 for human A549 cells to MIC for active state Mycobacterium bovis BCG ATCC 35734; type: toxicity, cell-based; conditions: read-out: Selectivity Index

O=C(/C=C\c1ccc([N+](=O)[O-])cc1)N1N=C(c2ccncc2)OC1c1c[nH]c2ccccc12 (stereo unspecified)
selectivity ratio [1]: > 12.7 | selectivity ratio [2]: > 12 | selectivity ratio [3]: > 12.7 | IC50 [4]: 9.46 µg/mL (≈ 21.5 µM) | MIC [4]: 28.2 µg/mL (≈ 64.3 µM) | IC50 [5]: 11.9 µg/mL (≈ 27 µM) | MIC [5]: 29.1 µg/mL (≈ 66.1 µM) | IC50 [6]: 12.7 µg/mL (≈ 28.8 µM) | MIC [6]: 30.6 µg/mL (≈ 69.7 µM) | IC50 [7]: 13.5 µg/mL (≈ 30.6 µM) | MIC [7]: 31.4 µg/mL (≈ 71.6 µM) | IC50 [8]: > 30 µg/mL | MIC [8]: > 30 µg/mL | IC50 [9]: > 30 µg/mL | MIC [9]: > 30 µg/mL | GI50 at 72 h [10]: > 30 µg/mL | GI90 [11]: > 30 µg/mL | GI50 at 48 h [12]: > 30 µg/mL | GI90 [13]: > 30 µg/mL | GI50 at 48 h [14]: > 30 µg/mL | GI90 [14]: > 30 µg/mL | selectivity ratio [15]: > 12 | selectivity ratio [16]: > 12.7 | selectivity ratio [17]: > 12

O=C(/C=C\c1ccccc1O)N1N=C(c2ccncc2)OC1c1c[nH]c2ccccc12 (stereo unspecified)
selectivity ratio [1]: > 25.2 | selectivity ratio [2]: > 31.9 | selectivity ratio [3]: > 25.2 | IC50 [4]: 21.7 µg/mL (≈ 52.9 µM) | MIC [4]: > 256 µg/mL | IC50 [5]: 22.5 µg/mL (≈ 54.9 µM) | MIC [5]: 192 µg/mL (≈ 469 µM) | IC50 [6]: 23.3 µg/mL (≈ 56.8 µM) | MIC [6]: > 256 µg/mL | IC50 [7]: 22.1 µg/mL (≈ 53.9 µM) | MIC [7]: > 256 µg/mL | IC50 [8]: > 30 µg/mL | MIC [8]: > 30 µg/mL | IC50 [9]: > 30 µg/mL | MIC [9]: > 30 µg/mL | GI50 at 72 h [10]: 26.8 µg/mL (≈ 65.3 µM) | GI90 [11]: > 30 µg/mL | GI50 at 48 h [12]: > 30 µg/mL | GI90 [13]: > 30 µg/mL | GI50 at 48 h [14]: > 30 µg/mL | GI90 [14]: > 30 µg/mL | selectivity ratio [15]: 28.5 | selectivity ratio [16]: 22.5 | selectivity ratio [17]: > 31.9

O=C(/C=C\c1ccc(Cl)cc1Cl)N1N=C(c2ccncc2)OC1c1c[nH]c2ccccc12 (stereo unspecified)
selectivity ratio [1]: > 6.03 | selectivity ratio [2]: > 5.8 | selectivity ratio [3]: > 6.03 | IC50 [4]: > 256 µg/mL | MIC [4]: > 256 µg/mL | IC50 [5]: > 256 µg/mL | MIC [5]: > 256 µg/mL | IC50 [6]: > 256 µg/mL | MIC [6]: > 256 µg/mL | IC50 [7]: > 256 µg/mL | MIC [7]: > 256 µg/mL | IC50 [8]: 29.3 µg/mL (≈ 63.3 µM) | MIC [8]: > 30 µg/mL | IC50 [9]: 27.5 µg/mL (≈ 59.4 µM) | MIC [9]: > 30 µg/mL | GI50 at 72 h [10]: 29.3 µg/mL (≈ 63.3 µM) | GI90 [11]: > 30 µg/mL | GI50 at 48 h [12]: > 30 µg/mL | GI90 [13]: > 30 µg/mL | GI50 at 48 h [14]: > 30 µg/mL | GI90 [14]: > 30 µg/mL | selectivity ratio [15]: 5.68 | selectivity ratio [16]: 5.9 | selectivity ratio [17]: > 5.8

O=C(/C=C\c1ccccc1[N+](=O)[O-])N1N=C(c2ccncc2)OC1c1c[nH]c2ccccc12 (stereo unspecified)
selectivity ratio [1]: > 35.3 | selectivity ratio [2]: > 29.1 | selectivity ratio [3]: > 35.3 | IC50 [4]: 18.4 µg/mL (≈ 41.8 µM) | MIC [4]: > 256 µg/mL | IC50 [5]: 19.2 µg/mL (≈ 43.7 µM) | MIC [5]: > 256 µg/mL | IC50 [6]: 21.1 µg/mL (≈ 47.9 µM) | MIC [6]: > 256 µg/mL | IC50 [7]: 24.2 µg/mL (≈ 55.2 µM) | MIC [7]: > 256 µg/mL | IC50 [8]: > 30 µg/mL | MIC [8]: > 30 µg/mL | IC50 [9]: > 30 µg/mL | MIC [9]: > 30 µg/mL | GI50 at 72 h [10]: > 30 µg/mL | GI90 [11]: > 30 µg/mL | GI50 at 48 h [12]: > 30 µg/mL | GI90 [13]: > 30 µg/mL | GI50 at 48 h [14]: > 30 µg/mL | GI90 [14]: > 30 µg/mL | selectivity ratio [15]: > 29.1 | selectivity ratio [16]: > 35.3 | selectivity ratio [17]: > 29.1
